According to paper PMC10303200 (ACS Central Science, 2023):
Values joined by “and” are separate entries in the source; they are usually repeats but may differ in a detail not shown here. Equal values may be shown once. Read-outs that look alike come from different tables or passages of the source.

Columns and labels:
[1] = biological target: SNA (Sambucus nigra agglutinin) (Sambucus nigra, UniProt Q41358); assay: biochemical; type: binding
[2] = system: MAA (Maackia amurensis agglutinin); assay: COIN-CaR-nMS; type: binding
SARS-CoV-2 RBD = SARS-CoV-2 RBD (Severe acute respiratory syndrome coronavirus 2, UniProt P0DTC2); assay: biochemical; type: binding; settings: pH 6.9
Sig7-Fc = Sig7-Fc (Homo sapiens, UniProt Q9Y286); assay: COIN-CaR-nMS; type: binding; parameters: Siglec 7-Fc (Sig7-Fc, residue 1–345, MW 150 kDa); His6 (C); made in house; host or cells: wild-type CHO cells
Sig7-Fc, sequence (Q9Y286 19-345): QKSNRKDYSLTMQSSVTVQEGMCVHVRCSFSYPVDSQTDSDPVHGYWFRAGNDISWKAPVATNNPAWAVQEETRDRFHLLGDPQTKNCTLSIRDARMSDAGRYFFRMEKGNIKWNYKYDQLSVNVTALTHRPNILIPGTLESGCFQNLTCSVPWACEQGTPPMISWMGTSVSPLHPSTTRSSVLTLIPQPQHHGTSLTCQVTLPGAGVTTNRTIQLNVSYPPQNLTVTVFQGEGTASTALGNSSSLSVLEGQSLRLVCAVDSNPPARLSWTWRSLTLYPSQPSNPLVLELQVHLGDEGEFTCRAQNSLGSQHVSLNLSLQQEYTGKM

GAL-3C [3] = biological target: T1, GAL-3C (Homo sapiens, UniProt P17931); parameters: human Galectin-3 (GAL-3C, residues 107–250, molecular weight (MW) 16 327 Da); settings: known Kd used to calculate glycan concentration; cited from earlier work
T1 sequence (P17931 107-250): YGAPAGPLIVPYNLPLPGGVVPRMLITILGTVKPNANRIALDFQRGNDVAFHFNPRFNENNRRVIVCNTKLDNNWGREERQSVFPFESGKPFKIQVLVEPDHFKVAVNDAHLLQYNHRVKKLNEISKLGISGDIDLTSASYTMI

GAL-7 homodimer [4] = biological target: T2, GAL-7 homodimer (Homo sapiens, UniProt P47929); assay: COIN-nMS affinity measurement; type: binding; parameters: key: NB: No binding detected; settings: glycans present as a mixture (G2, G5-G13); average of eight measurements; pH 6.9
T2 construct: made in house
T2 sequence (P47929 whole entry): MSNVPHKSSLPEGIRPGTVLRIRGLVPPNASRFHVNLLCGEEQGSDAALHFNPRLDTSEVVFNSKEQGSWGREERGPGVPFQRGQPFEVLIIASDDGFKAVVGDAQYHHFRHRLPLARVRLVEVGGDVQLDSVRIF

GAL-7 homodimer [5] = biological target: T2, GAL-7 homodimer; assay: direct nMS affinity measurement; type: binding; parameters: key: NB: No binding detected; settings: glycans present as a mixture (G2, G5-G13); pH 6.9
GNA [6] = biological target: T3, GNA (Galanthus nivalis, UniProt P30617); assay: COIN-CaR-nMS; type: binding; settings: purified glycan; ammonium acetate 200 mM, pH 6.9
T3 sequence (P30617 24-128 limits assumed): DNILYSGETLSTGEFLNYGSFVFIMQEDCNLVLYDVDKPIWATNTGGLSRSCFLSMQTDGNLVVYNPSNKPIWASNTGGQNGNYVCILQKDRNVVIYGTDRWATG

GNA [7] = biological target: T3, GNA; assay: direct nMS (ESI-MS) measurement; type: binding; settings: read-out: Kd by direct nMS (column Kd (Literature))
GAL-3C [8] = biological target: T1, GAL-3C; assay: COIN-nMS affinity measurement; type: binding; parameters: human Galectin-3 (GAL-3C, residues 107–250, molecular weight (MW) 16 327 Da); key: NB: No binding detected; settings: glycans present as a mixture (G2, G5-G13); average of eight measurements; pH 6.9
GAL-3C [9] = biological target: T1, GAL-3C; assay: direct nMS (ESI-MS) affinity measurement at known concentrations; type: binding; parameters: human Galectin-3 (GAL-3C, residues 107–250, molecular weight (MW) 16 327 Da); key: NB: No binding detected; settings: glycans present as a mixture (G2, G5-G13); pH 6.9
DC-SIGN CRD [10] = biological target: T4, DC-SIGN CRD (Homo sapiens, UniProt Q9NNX6); assay: COIN-nMS affinity measurement; type: binding; parameters: The carbohydrate recognition domain (CRD) of DC-SIGN (residues 250–404, MW 17 794 Da); made in house
T4 sequence (Q9NNX6 250-404): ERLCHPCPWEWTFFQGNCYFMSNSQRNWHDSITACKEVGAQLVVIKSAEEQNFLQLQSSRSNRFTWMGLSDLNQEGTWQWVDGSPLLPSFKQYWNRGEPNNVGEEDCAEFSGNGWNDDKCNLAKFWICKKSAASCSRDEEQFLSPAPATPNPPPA

DC-SIGN CRD [11] = biological target: T4, DC-SIGN CRD; assay: direct nMS affinity measurement; type: binding; parameters: The carbohydrate recognition domain (CRD) of DC-SIGN (residues 250–404, MW 17 794 Da); made in house; settings: pH 7.4
[12] = system: GFP-encoding SARS-CoV-2 pseudotyped virus, ACE2+ HEK293 cells; type: cell-based
[13] = system: SARS-CoV-2 (hCoV-19/Canada/ON-VIDO-01/2020), ACE2+ HEK293 cells; type: cell-based
CD22-Fc = biological target: T5, CD22-Fc (Homo sapiens, UniProt P20273); assay: COIN-CaR-nMS; type: binding; settings: N-glycan natural libraries and G21; pH 6.9
T5 construct: His6 (C); made in house; host or cells: wild-type CHO cells
T5 sequence (P20273 20-332 limits assumed): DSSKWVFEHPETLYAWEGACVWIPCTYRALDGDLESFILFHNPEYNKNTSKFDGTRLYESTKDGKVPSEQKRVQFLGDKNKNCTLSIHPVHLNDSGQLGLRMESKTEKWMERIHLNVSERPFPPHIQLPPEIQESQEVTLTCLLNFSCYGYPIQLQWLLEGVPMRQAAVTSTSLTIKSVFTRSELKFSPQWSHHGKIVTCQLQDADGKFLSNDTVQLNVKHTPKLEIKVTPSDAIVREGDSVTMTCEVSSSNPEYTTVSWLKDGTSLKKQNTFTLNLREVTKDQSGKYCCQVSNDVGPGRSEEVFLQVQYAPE

SNA = SNA (Sambucus nigra, UniProt Q41358); assay: biochemical; type: binding; settings: apparent Kd by ITC (Literature)
SNA, sequence (Q41358 309-570 limits assumed): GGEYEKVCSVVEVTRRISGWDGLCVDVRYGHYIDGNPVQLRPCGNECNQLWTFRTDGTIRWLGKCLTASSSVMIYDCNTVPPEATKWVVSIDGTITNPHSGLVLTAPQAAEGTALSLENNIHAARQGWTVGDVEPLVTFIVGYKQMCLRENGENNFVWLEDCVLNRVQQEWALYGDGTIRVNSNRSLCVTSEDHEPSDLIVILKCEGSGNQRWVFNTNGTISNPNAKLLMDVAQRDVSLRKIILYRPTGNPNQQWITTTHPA
SNA, sequence (Q41358 29-289 partner limits assumed): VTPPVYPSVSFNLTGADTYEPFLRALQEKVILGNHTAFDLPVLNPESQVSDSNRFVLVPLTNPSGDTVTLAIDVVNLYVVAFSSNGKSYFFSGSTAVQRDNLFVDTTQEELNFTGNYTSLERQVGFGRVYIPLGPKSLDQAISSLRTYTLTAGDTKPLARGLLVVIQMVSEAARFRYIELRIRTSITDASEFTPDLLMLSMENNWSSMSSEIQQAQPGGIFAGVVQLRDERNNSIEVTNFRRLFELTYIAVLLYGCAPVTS

Siglec-7 = settings: ITC; cited from earlier work
MAA = assay: Isothermal titration calorimetry (ITC); type: binding, Maackia amurensis; settings: ammonium acetate 200 mM, 25 °C, read-out: apparent Kd by ITC (Literature)
[14] = biological target: T6, AAL (Aleuria Aurantia lectin) (Aleuria aurantia, UniProt P18891); assay: COIN-CaR-nMS; type: binding; settings: N-glycan natural libraries; pH 6.9
T6 construct: purchased Vector Laboratories (Newark, CA, USA)
T6 sequence (P18891 1-313): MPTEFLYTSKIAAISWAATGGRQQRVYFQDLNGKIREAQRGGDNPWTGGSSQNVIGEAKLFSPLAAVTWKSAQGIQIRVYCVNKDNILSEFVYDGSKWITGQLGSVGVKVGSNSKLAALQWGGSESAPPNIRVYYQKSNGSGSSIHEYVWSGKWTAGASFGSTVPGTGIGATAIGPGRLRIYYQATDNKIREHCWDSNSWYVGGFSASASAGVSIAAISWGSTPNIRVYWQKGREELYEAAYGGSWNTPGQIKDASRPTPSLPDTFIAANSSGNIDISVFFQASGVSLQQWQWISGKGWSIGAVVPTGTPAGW

[15] = biological target: RCA-I (Ricinus communis agglutinin) (Ricinus communis, UniProt P06750); type: binding; settings: pH 6.9; read-out: Kd (Native)
[16] = N-glycan natural libraries and purified oligosaccharides, pH 6.9, read-out: Kd

SNA (Sambucus nigra agglutinin), sequence (Q41358 309-570 limits assumed): as the sequence (Q41358 309-570 limits assumed) above
SNA (Sambucus nigra agglutinin), sequence (Q41358 29-289 partner limits assumed): as the sequence (Q41358 29-289 partner limits assumed) above

CC(=O)N[C@H]1[C@H]([C@H](O)[C@H](O)CO)O[C@@](OC[C@H]2O[C@@H](O[C@H]3[C@H](O)[C@@H](NC(C)=O)C(O)O[C@@H]3CO)[C@H](O)[C@@H](O)[C@H]2O)(C(=O)O)C[C@@H]1O (stereo partly drawn) [Glycan G23, α-D-Neu5Ac-(2→6)-β-D-Gal-(1→4)-D-GlcNAc]
Kd ([1]; Kd (COIN-CaR-nMS)): 0.6 µM
Kd ([1]; Kd (COIN-CaR-nMS), two ligands): 700 nM and 900 nM and 400 nM (2×) and 300 nM and 600 nM
Kd ([1]; pH 6.9, read-out: Kd, Native library (-NeuS)): 0.55 ± 0.16 µM
fold weaker binding than G25 [2]: 2 fold
Kd (SARS-CoV-2 RBD): 76 ± 9 µM
Kd (Sig7-Fc; [16]): 265 ± 66 µM

α-D-GalNAc(1→3)-[α-L-Fuc(1→2)]-β-Gal(1→4)-D-GlcNAc [Glycan G24]
Kd (GAL-3C [3]): 7.2 ± 0.4 µM

OC[C@H]1O[C@H](O[C@@H]2[C@@H](OC[C@H]3O[C@H](OC[C@H]4OC(O)[C@@H](O)[C@@H](O[C@H]5O[C@H](CO)[C@@H](O)[C@H](O)[C@@H]5O[C@H]5O[C@H](CO)[C@@H](O)[C@H](O)[C@@H]5O[C@H]5O[C@H](CO)[C@@H](O)[C@H](O)[C@@H]5O)[C@@H]4O)[C@@H](O)[C@@H](O[C@H]4O[C@H](CO)[C@@H](O)[C@H](O)[C@@H]4O[C@H]4O[C@H](CO)[C@@H](O)[C@H](O)[C@@H]4O)[C@@H]3O)O[C@H](CO)[C@@H](O)[C@@H]2O)[C@@H](O)[C@@H](O)[C@@H]1O (stereo partly drawn) [Glycan G5, α-D-Man-(1→2)-α-D-Man-(1→6)-[Man-(1→2)-α-D-Man-(1→3)]-α-D-Man-(1→6)-[Man-(1→2)-α-D-Man-(1→2)-α-D-Man-(1→3)]-α-D-Man]
Kd (COIN-nMS) (GAL-7 homodimer [4]): NB and do not bind
Kd (nMS) (GAL-7 homodimer [5]): NB
Kd (GNA [6]): 553.2 ± 1 µM
Kd (GNA [7]): 774 µM
Kd (COIN-nMS) (GAL-3C [8]): NB and do not bind
Kd (nMS) (GAL-3C [9]): NB
Kd (DC-SIGN CRD [10]; global fit of data sets at 75, 100, 125 µM glycan, read-out: Kd (COIN-nMS, global fit)): 235 ± 12.6 µM
Kd (DC-SIGN CRD [10]; glycan concentration 75 µM, pH 7.4, read-out: Kd (COIN-nMS, individual experiments)): 212 ± 2.2 µM
Kd (DC-SIGN CRD [10]; glycan concentration 100 µM, pH 7.4, read-out: Kd (COIN-nMS, individual experiments)): 246.7 ± 1 µM
Kd (DC-SIGN CRD [10]; glycan concentration 125 µM, pH 7.4, read-out: Kd (COIN-nMS, individual experiments)): 234 ± 1.5 µM
Kd (DC-SIGN CRD [10]; glycans present as a mixture (G2, G5, G10, G14-G20), average of six measurements, pH 7.4, read-out: Kd (COIN-nMS)): 240 ± 40 µM
Kd (DC-SIGN CRD [11]; glycans present as a mixture (G2, G5, G10, G14-G20)): 230 ± 20 µM
Kd (DC-SIGN CRD [11]; individual glycan, ammonium acetate 200 mM, 2.5 mM calcium): 231 ± 17.3 µM

O=C1N[C@@H]2[C@@H](O)[C@@H](O)[C@H](O)[C@@H](CO)N2C1=O [kifunensine]
infection by pseudotyped virus (%GFP+ cells) [12]: decreased significantly
infection by authentic virus (viral titers, PFU) [13]: concentration-dependent decrease in infection

CC(=O)N[C@H]1[C@H]([C@H](O)[C@H](O)CO)O[C@@](OC[C@H]2O[C@@H](O[C@H]3[C@H](O)[C@@H](O)C(O)O[C@@H]3CO)[C@H](O)[C@@H](O)[C@H]2O)(C(=O)O)C[C@@H]1O (stereo partly drawn) [Glycan G21, α-D-Neu5Ac-(2→6)-β-D-Gal-(1→4)-D-Glc]
fold weaker ligand than G23 [1]: 3 fold
Kd ([1]; Kd (COIN-CaR-nMS)): 1.6 ± 0.4 µM
Kd ([1]; Kd (COIN-CaR-nMS), two ligands): 2 µM and 1.5 µM and 3.3 µM and 1.7 µM and 1.6 µM and 1.8 µM
Kd (CD22-Fc): 40 µM
Kd (SNA): 1.98 µM and 2 µM
Kd (Siglec-7): 240 µM
Kd (Sig7-Fc; G21 0.5 μM and G29 30 μM, read-out: Kd (COIN-CaR-nMS), two ligands): 284 ± 70 µM
Kd (Sig7-Fc; G21 1.0 μM and G29 30 μM, read-out: Kd (COIN-CaR-nMS), two ligands): 239 ± 50 µM
Kd (Sig7-Fc; G21 5 μM and G29 30 μM, read-out: Kd (COIN-CaR-nMS), two ligands): 366 ± 10 µM
Kd (Sig7-Fc; G21 10 μM and G29 30 μM, read-out: Kd (COIN-CaR-nMS), two ligands): 249 ± 20 µM
Kd (Sig7-Fc; [16]): 236 µM

CC(=O)N[C@H]1[C@H]([C@H](O)[C@H](O)CO)O[C@@](O[C@H]2[C@@H](O)[C@@H](CO)O[C@@H](O[C@H]3[C@H](O)[C@@H](O)C(O)O[C@@H]3CO)[C@@H]2O)(C(=O)O)C[C@@H]1O (stereo partly drawn) [Glycan G22, α-D-Neu5Ac-(2→3)-β-D-Gal-(1→4)-D-Glc]
Kd (MAA): 4 ± 2 µM
Kd (Siglec-7): 680 µM

CC(=O)N[C@H]1[C@H](O[C@H]2[C@H](O)[C@@H](NC(C)=O)C(O)O[C@@H]2CO[C@@H]2O[C@@H](C)[C@@H](O)[C@@H](O)[C@@H]2O)O[C@H](CO)[C@@H](O[C@@H]2O[C@H](CO[C@H]3O[C@H](CO)[C@@H](O)[C@H](O)[C@@H]3O[C@@H]3O[C@H](CO)[C@@H](O)[C@H](O)[C@H]3NC(C)=O)[C@@H](O)[C@H](O[C@H]3O[C@H](CO)[C@@H](O)[C@H](O)[C@@H]3O[C@@H]3O[C@H](CO)[C@@H](O)[C@H](O)[C@H]3NC(C)=O)[C@@H]2O)[C@@H]1O (stereo partly shown) [HexNAc4Hex3Fuc1]
Kd [14]: 2.6 ± 0.57 µM
Kd [15]: 1.73 ± 0.08 µM
